Results taken from ChEMBL document CHEMBL5291721, “A preclinical secondary pharmacology resource illuminates target-adverse drug reaction associations of marketed drugs” (Nat Commun, 2023).

Tests used:
[1] = biological target: T1, Muscarinic acetylcholine receptor M1 (Homo sapiens, UniProt P11229); assay type: functional, cell-based
T1 sequence (P11229 whole entry): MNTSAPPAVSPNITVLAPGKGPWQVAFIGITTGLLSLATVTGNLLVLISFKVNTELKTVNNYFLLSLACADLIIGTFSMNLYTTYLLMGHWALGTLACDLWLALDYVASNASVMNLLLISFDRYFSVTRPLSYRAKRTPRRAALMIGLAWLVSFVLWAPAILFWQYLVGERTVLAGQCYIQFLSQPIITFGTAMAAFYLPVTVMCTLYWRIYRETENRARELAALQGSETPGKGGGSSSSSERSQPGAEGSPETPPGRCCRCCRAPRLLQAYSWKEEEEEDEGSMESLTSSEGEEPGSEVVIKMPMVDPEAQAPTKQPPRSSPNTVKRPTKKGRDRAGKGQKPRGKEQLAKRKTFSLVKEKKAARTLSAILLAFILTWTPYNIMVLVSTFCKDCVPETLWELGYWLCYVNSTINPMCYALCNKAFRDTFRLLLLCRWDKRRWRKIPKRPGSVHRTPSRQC

[2] = biological target: T1, Muscarinic acetylcholine receptor M1; assay type: functional, cell-based; remark: listed apart in the source
[3] = biological target: 5-hydroxytryptamine receptor 5A (Homo sapiens, UniProt P47898)
[4] = biological target: D(1B) dopamine receptor (Homo sapiens, UniProt P21918)
[5] = biological target: Rod cGMP-specific 3',5'-cyclic phosphodiesterase subunit alpha (Homo sapiens, UniProt P16499); assay type: functional
[6] = biological target: 5-hydroxytryptamine receptor 2B (Homo sapiens, UniProt P41595)
[7] = biological target: T2, Prostaglandin G/H synthase 1 (Rattus norvegicus, UniProt Q63921); assay type: functional
T2 sequence (Q63921 whole entry): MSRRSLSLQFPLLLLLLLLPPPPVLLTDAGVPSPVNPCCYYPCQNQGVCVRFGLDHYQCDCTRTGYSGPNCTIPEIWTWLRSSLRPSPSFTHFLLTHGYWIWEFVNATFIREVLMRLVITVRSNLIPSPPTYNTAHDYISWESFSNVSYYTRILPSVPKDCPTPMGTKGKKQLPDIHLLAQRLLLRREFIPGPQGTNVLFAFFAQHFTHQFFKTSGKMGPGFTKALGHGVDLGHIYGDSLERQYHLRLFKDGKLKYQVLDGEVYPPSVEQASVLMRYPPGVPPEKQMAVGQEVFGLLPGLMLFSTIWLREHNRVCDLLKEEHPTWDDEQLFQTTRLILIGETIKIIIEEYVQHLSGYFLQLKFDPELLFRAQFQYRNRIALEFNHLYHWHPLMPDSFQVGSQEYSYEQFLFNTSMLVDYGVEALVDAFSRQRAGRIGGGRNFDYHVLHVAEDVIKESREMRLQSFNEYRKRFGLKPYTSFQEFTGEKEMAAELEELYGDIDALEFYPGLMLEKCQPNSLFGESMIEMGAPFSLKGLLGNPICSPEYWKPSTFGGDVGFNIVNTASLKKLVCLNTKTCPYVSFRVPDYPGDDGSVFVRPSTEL

[8] = biological target: Hydroxycarboxylic acid receptor 2 (Homo sapiens, UniProt Q8TDS4)
[9] = biological target: Synaptic vesicular amine transporter (Rattus norvegicus, UniProt Q01827); assay type: functional
[10] = biological target: T3, D(1A) dopamine receptor (Homo sapiens, UniProt P21728); assay type: functional, cell-based
[11] = biological target: T3, D(1A) dopamine receptor
[12] = biological target: Voltage-dependent L-type calcium channel subunit alpha-1C (Homo sapiens, UniProt Q13936); assay type: functional, cell-based
[13] = biological target: Epidermal growth factor receptor (Homo sapiens, UniProt P00533); assay type: functional
[14] = biological target: T4, Estrogen receptor (Homo sapiens, UniProt P03372); assay type: functional
T4 sequence (P03372 whole entry): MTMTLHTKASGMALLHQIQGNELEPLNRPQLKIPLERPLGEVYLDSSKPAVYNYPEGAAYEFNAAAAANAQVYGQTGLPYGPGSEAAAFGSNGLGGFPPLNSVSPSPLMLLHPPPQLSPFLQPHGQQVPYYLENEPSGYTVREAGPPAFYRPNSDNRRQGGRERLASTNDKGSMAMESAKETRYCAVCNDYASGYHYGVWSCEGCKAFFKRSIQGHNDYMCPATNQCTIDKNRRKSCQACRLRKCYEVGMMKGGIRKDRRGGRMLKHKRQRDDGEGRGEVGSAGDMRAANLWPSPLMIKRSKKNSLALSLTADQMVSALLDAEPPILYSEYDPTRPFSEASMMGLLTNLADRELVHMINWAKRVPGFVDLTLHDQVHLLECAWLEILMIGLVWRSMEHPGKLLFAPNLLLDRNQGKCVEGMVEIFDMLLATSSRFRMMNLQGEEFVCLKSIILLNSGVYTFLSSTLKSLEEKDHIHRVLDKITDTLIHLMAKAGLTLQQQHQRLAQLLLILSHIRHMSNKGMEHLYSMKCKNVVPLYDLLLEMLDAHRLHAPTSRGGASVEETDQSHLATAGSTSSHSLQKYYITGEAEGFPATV

[15] = biological target: Vascular endothelial growth factor receptor 2 (Homo sapiens, UniProt P35968); assay type: functional
[16] = biological target: T5, Thromboxane A2 receptor (Homo sapiens, UniProt P21731); assay type: functional, cell-based
T5 sequence (P21731 whole entry): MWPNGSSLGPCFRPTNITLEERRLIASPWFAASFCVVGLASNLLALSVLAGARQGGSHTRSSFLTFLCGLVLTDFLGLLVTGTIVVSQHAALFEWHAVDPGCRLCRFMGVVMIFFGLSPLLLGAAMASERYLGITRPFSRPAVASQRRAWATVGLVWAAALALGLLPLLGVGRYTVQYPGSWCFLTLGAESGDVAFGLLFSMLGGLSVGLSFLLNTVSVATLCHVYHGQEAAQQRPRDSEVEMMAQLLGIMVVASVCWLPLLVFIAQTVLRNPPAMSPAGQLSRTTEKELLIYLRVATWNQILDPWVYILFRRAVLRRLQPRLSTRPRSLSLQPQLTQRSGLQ

[17] = biological target: T5, Thromboxane A2 receptor; assay type: functional
[18] = biological target: T4, Estrogen receptor; assay type: functional; remark: listed apart in the source
Note: assay procedure not described here.

T3 sequence (P21728 whole entry): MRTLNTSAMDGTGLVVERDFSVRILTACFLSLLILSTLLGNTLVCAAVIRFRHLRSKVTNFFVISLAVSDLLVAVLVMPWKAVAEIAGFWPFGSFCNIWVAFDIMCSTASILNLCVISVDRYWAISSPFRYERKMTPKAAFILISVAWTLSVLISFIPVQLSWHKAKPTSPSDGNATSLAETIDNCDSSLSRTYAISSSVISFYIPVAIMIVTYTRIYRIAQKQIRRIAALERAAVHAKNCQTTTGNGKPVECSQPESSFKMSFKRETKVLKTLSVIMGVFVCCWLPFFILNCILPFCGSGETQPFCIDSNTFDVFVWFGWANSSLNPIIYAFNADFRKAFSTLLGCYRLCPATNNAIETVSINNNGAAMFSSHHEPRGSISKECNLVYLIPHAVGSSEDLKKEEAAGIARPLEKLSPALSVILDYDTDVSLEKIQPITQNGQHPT
Chain of Synaptic vesicular amine transporter (Q01827 whole entry): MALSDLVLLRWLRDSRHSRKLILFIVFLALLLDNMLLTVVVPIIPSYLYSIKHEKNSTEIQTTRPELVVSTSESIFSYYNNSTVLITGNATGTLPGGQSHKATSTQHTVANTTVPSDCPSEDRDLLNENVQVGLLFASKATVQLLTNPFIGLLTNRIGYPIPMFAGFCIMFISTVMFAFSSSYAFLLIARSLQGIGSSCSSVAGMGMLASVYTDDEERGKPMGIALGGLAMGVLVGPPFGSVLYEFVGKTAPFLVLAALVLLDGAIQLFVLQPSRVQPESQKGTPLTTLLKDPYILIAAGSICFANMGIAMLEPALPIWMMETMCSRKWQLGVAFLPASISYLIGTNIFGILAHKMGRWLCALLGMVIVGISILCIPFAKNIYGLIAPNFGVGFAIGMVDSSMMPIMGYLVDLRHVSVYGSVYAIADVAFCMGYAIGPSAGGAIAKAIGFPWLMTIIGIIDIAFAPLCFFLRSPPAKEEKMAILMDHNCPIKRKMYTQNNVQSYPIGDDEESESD
Chain of Rod cGMP-specific 3',5'-cyclic phosphodiesterase subunit alpha (P16499 whole entry): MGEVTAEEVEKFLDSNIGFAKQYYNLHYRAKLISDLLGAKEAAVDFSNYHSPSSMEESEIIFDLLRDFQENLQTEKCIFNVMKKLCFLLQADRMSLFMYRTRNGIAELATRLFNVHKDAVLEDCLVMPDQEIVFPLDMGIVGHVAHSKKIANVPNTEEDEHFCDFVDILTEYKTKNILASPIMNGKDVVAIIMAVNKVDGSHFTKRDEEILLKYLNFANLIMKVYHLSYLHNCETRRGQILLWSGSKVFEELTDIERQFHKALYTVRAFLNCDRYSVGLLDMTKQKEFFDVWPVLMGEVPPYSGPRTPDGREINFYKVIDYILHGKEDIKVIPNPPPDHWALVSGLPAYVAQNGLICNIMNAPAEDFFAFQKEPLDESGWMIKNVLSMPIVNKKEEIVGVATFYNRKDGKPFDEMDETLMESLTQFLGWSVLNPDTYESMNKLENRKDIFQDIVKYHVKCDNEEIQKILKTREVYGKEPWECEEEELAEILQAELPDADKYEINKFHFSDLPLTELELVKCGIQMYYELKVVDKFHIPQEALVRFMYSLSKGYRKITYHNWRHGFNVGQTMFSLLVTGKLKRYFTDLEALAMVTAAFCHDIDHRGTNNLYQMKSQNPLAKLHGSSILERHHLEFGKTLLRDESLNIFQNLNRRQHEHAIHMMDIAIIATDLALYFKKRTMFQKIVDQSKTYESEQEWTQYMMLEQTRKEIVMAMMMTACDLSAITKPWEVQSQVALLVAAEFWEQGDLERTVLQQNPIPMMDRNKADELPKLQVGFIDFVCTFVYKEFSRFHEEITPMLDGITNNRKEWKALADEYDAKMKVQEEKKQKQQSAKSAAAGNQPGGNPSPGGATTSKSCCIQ
Chain of 5-hydroxytryptamine receptor 5A (P47898 whole entry): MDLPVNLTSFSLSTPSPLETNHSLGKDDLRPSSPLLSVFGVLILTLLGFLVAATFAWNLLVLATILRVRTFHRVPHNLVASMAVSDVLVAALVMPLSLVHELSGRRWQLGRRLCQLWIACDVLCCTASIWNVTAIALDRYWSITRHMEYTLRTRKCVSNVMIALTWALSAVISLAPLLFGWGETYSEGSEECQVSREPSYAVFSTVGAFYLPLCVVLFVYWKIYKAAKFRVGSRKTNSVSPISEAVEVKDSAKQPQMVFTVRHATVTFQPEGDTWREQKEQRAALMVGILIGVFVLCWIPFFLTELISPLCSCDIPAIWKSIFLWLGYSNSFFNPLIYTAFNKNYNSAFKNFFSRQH
Chain of Hydroxycarboxylic acid receptor 2 (Q8TDS4 whole entry): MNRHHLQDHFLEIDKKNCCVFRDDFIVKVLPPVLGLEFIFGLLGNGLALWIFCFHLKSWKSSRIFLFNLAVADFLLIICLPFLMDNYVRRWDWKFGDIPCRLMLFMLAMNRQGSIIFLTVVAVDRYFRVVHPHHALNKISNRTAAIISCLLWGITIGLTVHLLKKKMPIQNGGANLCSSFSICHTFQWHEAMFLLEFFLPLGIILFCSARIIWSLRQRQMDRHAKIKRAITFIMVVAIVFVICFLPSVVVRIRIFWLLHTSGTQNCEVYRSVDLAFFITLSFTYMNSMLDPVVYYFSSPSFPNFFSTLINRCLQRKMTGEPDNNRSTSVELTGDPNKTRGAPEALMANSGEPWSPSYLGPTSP
Chain of D(1B) dopamine receptor (P21918 whole entry): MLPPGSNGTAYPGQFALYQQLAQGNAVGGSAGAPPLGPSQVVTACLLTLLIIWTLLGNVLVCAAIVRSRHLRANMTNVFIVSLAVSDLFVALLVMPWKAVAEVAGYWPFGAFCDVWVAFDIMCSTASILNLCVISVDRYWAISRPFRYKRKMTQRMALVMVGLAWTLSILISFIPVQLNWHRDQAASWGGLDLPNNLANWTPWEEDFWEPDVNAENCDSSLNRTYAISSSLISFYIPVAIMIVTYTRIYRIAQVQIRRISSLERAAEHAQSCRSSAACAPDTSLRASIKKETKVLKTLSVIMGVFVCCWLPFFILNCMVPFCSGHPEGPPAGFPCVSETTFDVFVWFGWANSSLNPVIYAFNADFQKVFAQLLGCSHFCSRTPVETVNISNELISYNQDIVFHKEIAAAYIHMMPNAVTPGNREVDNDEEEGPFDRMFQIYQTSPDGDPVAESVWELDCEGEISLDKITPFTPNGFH
Chain of 5-hydroxytryptamine receptor 2B (P41595 whole entry): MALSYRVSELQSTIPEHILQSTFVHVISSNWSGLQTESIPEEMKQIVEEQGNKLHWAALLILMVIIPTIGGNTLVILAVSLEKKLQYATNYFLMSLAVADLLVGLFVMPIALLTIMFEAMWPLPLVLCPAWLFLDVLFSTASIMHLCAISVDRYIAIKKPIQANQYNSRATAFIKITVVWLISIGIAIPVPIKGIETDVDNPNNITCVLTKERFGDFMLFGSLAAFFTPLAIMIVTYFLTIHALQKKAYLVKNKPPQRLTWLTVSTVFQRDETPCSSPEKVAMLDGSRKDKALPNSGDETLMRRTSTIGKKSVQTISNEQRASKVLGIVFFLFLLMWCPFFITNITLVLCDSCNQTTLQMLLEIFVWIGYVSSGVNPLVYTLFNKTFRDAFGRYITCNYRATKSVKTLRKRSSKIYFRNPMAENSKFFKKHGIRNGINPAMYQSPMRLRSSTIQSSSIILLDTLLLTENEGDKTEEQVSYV
Chain of Vascular endothelial growth factor receptor 2 (P35968 whole entry): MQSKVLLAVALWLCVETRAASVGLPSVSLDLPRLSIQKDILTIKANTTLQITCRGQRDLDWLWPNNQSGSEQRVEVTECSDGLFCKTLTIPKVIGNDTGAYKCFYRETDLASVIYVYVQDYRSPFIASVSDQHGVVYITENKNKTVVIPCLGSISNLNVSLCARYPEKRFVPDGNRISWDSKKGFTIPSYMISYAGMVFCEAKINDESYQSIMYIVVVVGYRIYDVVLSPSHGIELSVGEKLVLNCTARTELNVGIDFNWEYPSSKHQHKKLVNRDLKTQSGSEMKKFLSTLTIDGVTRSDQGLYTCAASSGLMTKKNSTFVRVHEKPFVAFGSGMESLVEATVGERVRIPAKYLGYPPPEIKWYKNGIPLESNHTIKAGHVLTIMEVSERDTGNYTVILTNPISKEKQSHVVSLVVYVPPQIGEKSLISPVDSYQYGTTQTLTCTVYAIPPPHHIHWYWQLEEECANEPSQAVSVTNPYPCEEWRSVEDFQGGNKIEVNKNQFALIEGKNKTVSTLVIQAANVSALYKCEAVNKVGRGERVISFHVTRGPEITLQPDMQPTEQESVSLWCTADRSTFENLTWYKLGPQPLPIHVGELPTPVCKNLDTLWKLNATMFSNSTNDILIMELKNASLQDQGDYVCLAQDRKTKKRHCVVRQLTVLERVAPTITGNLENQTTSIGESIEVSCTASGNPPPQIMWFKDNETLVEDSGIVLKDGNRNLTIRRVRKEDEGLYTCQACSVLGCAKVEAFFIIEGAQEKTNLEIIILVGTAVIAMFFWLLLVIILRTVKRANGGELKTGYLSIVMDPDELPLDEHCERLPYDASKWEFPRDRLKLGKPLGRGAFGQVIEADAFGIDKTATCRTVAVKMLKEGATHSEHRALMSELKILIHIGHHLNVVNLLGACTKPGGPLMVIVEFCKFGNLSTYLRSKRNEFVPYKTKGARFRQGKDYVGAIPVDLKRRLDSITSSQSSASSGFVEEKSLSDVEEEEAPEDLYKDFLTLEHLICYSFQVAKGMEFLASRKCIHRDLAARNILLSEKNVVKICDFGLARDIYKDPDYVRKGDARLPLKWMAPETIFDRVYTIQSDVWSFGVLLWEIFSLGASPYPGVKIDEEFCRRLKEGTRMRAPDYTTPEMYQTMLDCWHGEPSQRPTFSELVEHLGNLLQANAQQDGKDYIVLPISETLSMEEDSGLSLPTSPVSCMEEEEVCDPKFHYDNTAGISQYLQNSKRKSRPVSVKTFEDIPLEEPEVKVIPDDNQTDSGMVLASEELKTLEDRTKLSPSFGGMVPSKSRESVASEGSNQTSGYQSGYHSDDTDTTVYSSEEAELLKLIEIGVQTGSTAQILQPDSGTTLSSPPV

C[N+]1(C)CCC(=C(c2ccccc2)c2ccccc2)CC1
AC50 [1]: 0.12 µM | AC50 [2]: > 30 µM

O=C(/C=C/c1cccc(S(=O)(=O)Nc2ccccc2)c1)NO [BELINOSTAT]
AC50 [3]: > 10 µM | AC50 [4]: > 10 µM | AC50 [5]: > 10 µM

CC(Cc1cccc(C(F)(F)F)c1)NCCOC(=O)c1ccccc1 (stereo not given) [BENFLUOREX]
AC50 [6]: 0.933 µM

CC(O)(CS(=O)(=O)c1ccc(F)cc1)C(=O)Nc1ccc(C#N)c(C(F)(F)F)c1 (stereo not given) [BICALUTAMIDE]
AC50 [7]: > 30 µM

O=C(O)COCCN1CCN(C(c2ccccc2)c2ccc(Cl)cc2)CC1 (stereo not given) [CETIRIZINE]
AC50 [8]: > 10 µM

CC(=O)O[C@]1(C(C)=O)CC[C@H]2[C@@H]3C=C(Cl)C4=CC(=O)[C@@H]5C[C@@H]5[C@]4(C)[C@H]3CC[C@@]21C [CYPROTERONE ACETATE]
AC50 [7]: > 30 µM

CN[C@]1(c2ccccc2Cl)CCCCC1=O [ESKETAMINE]
AC50 [9]: > 30 µM

CNCCc1ccc(OC(=O)C(C)C)c(OC(=O)C(C)C)c1 [IBOPAMINE]
AC50 [10]: > 30 µM | AC50 [11]: > 30 µM

CN(C)CCCN1c2ccccc2CCc2ccccc21 [IMIPRAMINE]
AC50 [3]: 2.26 µM | AC50 [4]: 8.33 µM | AC50 [5]: > 10 µM | AC50 [9]: 11.4 µM

Cc1cccc(C)c1NC(=O)CC12CCCN1CCC2 [PILSICAINIDE]
AC50 [12]: > 50 µM

CC(C)c1cccc(C(C)C)c1O [PROPOFOL]
AC50 [13]: > 30 µM | AC50 [14]: > 30 µM | AC50 [15]: > 30 µM | AC50 [16]: > 30 µM | AC50 [10]: > 30 µM | AC50 [17]: > 30 µM | AC50 [18]: > 30 µM

CN[C@@H](C)[C@@H](O)c1ccccc1 [PSEUDOEPHEDRINE]
AC50 [8]: > 10 µM
